“Also recorded” adds a separate entry of the source.
Columns and labels:
[1] = system: TNF-α; assay: ELISA of RPE-choroid complex after laser injury: TNF-α; assay type: in vivo, rat; conditions: laser-treated animals, 3 days after laser injury; 0.3 mg/kg BW daily i.p.
Description: To block CB, a specific CBD, Compound 11 described above, was used (R-tech Ueno, Ltd., Tokyo, Japan). After laser injury, the inhibitor (0.3 mg/kg BW) was administered to the animals by daily i.p. injections. As a control, some animals received the same regimen for the vehicle solution alone.
The RPE-choroid complex was carefully isolated from eyes 3 days after photocoagulation and placed in 300 μl of lysis buffer supplemented with protease inhibitors and sonicated. The lysate was centrifuged at 15,000 rpm for 15 minutes at 4° C. and the levels of TNF-α, monocyte chemotactic protein (MCP)-1, and intercellular adhesion molecule (ICAM)-1 were determined with rat TNF-α (BI) bioscience), MCP-1 (BD bioscience) and ICAM-1 (R&D Systems, Minneapolis, Minn.) enzyme-linked immunosorbent assay (ELISA) kits according to the manufacturers' protocols. Total protein concentration was determined using a Bio-Rad Protein Assay Kit (Bio-Rad Laboratories Hercules, Calif.) and dilutions of bovine serum albumin (Bio-Rad Laboratories) as standards.

[2] = molecular target: T1, MAO-3 (Homo sapiens, UniProt P27338); conditions: functionally related monoamine oxidase; read-out: IC50 against MAO-3; cited from earlier work
T1 sequence (P27338 1-520): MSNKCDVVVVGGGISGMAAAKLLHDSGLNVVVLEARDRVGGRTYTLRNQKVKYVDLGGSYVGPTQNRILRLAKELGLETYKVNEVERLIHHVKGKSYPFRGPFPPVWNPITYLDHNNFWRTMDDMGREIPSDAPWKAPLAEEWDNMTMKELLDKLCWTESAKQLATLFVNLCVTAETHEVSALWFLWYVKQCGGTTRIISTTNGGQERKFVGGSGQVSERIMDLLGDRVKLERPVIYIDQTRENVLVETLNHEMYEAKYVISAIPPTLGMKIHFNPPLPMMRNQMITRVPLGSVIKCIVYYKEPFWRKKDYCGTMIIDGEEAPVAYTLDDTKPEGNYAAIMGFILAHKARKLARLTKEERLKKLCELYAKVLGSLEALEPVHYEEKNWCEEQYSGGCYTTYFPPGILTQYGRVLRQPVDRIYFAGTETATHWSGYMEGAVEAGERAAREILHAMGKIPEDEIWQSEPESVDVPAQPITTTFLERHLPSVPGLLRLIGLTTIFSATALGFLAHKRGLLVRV

[3] = system: CNV lesions; assay: Laser injury CNV model, CNV size in choroidal flat mounts; assay type: in vivo, Brown-Norway rats; conditions: rats
Description: For reverse transcription polymerase chain reaction (RT-PCR) detection and immunofluorescence staining of CB in the choroid, Lewis rats (8-10 weeks old, Charles River Laboratories, Inc., Wilmington, Mass.) were used. To generate CNV in the laser injury model, Brown-Norway rats (10-12 weeks old, Charles River Laboratories, Inc., Wilmington, Mass.) were used. Rats were housed in plastic cages in a climate controlled animal facility and were fed laboratory chow and water ad libitum. All animal experiments were conducted in accordance with the ARVO Statement for the Use of Animals in Ophthalmic and Vision Research.
Lewis rats were euthanized by overdose anesthesia and perfused with PBS (500 ml/kg body weight (BW)). Eyes were immediately enucleated and the retinal pigment epithelium (RPE)-choroid complex was obtained from the rat eyes and homogenized in extraction reagent (TRIzol Reagent; Invitrogen, Carlsbad, Calif.). […] PCR products were analyzed by electrophoresis in a 1.5% agarose gel and stained with ethidium bromide ([…]). The expected sizes of the amplified cDNA fragments of CB and GAPDH were 341 bp and 387 bp, respectively Band densities were quantified using NIH Image 1.41 software (available by ftp from zippy.nimh.nih.gov/or from the web site, rsb info.nih.gov/nih-image: developed by Wayne Rasband, National Institutes of Health, Bethesda, Md.). […]

CC(=O)Nc1nc(CCc2ccc(NC(=N)NN)cc2)c(Cc2ccc(S(C)(=O)=O)cc2)s1 [Compound II]
protein level of TNF-α in the RPE-choroid complex [1]: 360 ± 12 pg/mg | IC50 [2]: > 10 µM | effect on CNV / CNV size (in words) [3]: significantly decreased; also recorded: effectively suppresses CNV

From patent publication US20220079889A1, “USE OF CANNABANOIDS IN THE TREATMENT OF PROLIFERATIVE DIABETIC RETINOPATHY” (VERDANT PHARMACEUTICALS, LLC, priority 2020, published 2022)
